Reference: PubChem BioAssay (NCI)
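Five compound concentrations were applied to cells in 96-well plates for 48 hours; endpoints were derived by simple linear interpolation of the resulting dose-response curve. GI50 = concentration required for 50% inhibition of growth. TGI marks complete inhibition of growth.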

Tests used:
Experiment in all cases: NCI-60 cell line screen, 48 h
SR leukemia = test system: SR leukemia
UO-31 renal = test system: UO-31 renal
MDA-MB-231 breast = test system: MDA-MB-231 breast
EKVX NSCLC = test system: EKVX NSCLC
A549 NSCLC = test system: A549 NSCLC
MALME-3M melanoma = test system: MALME-3M melanoma
SK-MEL-2 melanoma = test system: SK-MEL-2 melanoma
786-0 renal = test system: 786-0 renal
HCT-116 colon = test system: HCT-116 colon
SF-268 CNS = test system: SF-268 CNS

Compound | GI50 (SR leukemia) | TGI (SR leukemia) | GI50 (UO-31 renal) | TGI (UO-31 renal) | GI50 (MDA-MB-231 breast) | TGI (MDA-MB-231 breast) | GI50 (EKVX NSCLC) | TGI (EKVX NSCLC) | GI50 (A549 NSCLC) | TGI (A549 NSCLC) | GI50 (MALME-3M melanoma) | TGI (MALME-3M melanoma) | GI50 (SK-MEL-2 melanoma) | TGI (SK-MEL-2 melanoma) | GI50 (786-0 renal) | TGI (786-0 renal) | GI50 (HCT-116 colon) | TGI (HCT-116 colon) | GI50 (SF-268 CNS) | TGI (SF-268 CNS)
CN(C)CCOc1ccccc1NC1=C(Cl)C(=O)C(Nc2ccccc2OCCN(C)C)=C(Cl)C1=O | 5.12 µM | > 100 µM | 0.735 µM | 2.22 µM | 2.21 µM | 6.61 µM | 5.33 µM | 19.1 µM | > 47.3 µM | > 100 µM | 3.31 µM | 12.8 µM | 19.2 µM | > 57 µM | 1.64 µM | 5.92 µM | 0.518 µM | 1.01 µM | 9.76 µM | 36.3 µM
COc1cc2nc3cc([N+](=O)[O-])ccc3c(NCCNCC(C)O)c2cc1OC (stereo not given) | 0.286 µM | 2.16 µM | 1.67 µM | 5.84 µM | 0.604 µM | 3.08 µM | 1.62 µM | 5.34 µM | 1.43 µM | 5.13 µM | 0.785 µM | 2.25 µM | 0.63 µM | 2.18 µM | 1.23 µM | 3.6 µM | 0.358 µM | 1.75 µM | 0.469 µM | 2.46 µM
Cc1ccsc1-c1ccc2c(c1)COC2(CCCN(C)C)c1ccc(F)cc1 (stereo not given) | 2.29 µM | 7.3 µM | 1.7 µM | 6.26 µM | 1.84 µM | 6 µM | 4.64 µM | 18.5 µM | 4.48 µM | 18.1 µM | 1.39 µM | 2.8 µM | 2.78 µM | 7.48 µM | 2.54 µM | 7.97 µM | 1.88 µM | 3.7 µM | 4.28 µM | 17.1 µM
Cc1ccccc1C(C(=O)NC1CCCCC1)N(C(=O)CNc1ccc(C#N)cc1)c1cccc(F)c1 (stereo not given) | 16.9 µM | 92.2 µM | > 93.5 µM | > 100 µM | 12.4 µM | 70.7 µM | 42.5 µM | > 100 µM | 44 µM | > 100 µM | 15.7 µM | > 91.3 µM | 13.1 µM | 32.5 µM | 17.3 µM | > 67.9 µM | 13.6 µM | > 100 µM | 16.6 µM | > 100 µM
C/C=C(\C)C(=O)O[C@H]1C=CC(=O)O[C@H]1COC(=O)[C@H](C)O | 2.2 µM | 13.4 µM | 9.79 µM | 25.5 µM | 12.1 µM | 28.3 µM | 14.5 µM | 28.9 µM | 15.5 µM | 35.3 µM | 5.5 µM | 15.8 µM | 15.3 µM | 41.4 µM | 6.59 µM | 20.9 µM | 2.72 µM | 10.9 µM | 4.32 µM | 17.6 µM
Cc1sc2c(c1C)C(c1ccc(Cl)cc1)=N[C@@H](CC(=O)NCCCN1CCN(C)CC1)c1nnc(C)n1-2 | 0.108 µM | > 100 µM | 3.83 µM | > 100 µM | 0.198 µM | > 100 µM | > 34.6 µM | > 100 µM | 3.22 µM | > 100 µM | 0.992 µM | > 100 µM | > 44.6 µM | > 100 µM | 5.48 µM | > 100 µM | 0.579 µM | > 100 µM | 30.3 µM | > 100 µM
CN(C)Cc1c(C(=O)NCCOc2ccc(C(=O)NO)cc2)oc2ccccc12 | 0.203 µM | 12.4 µM | 0.296 µM | 2.66 µM | 0.392 µM | 18.2 µM | 0.346 µM | > 100 µM | 0.299 µM | 1.98 µM | 0.0709 µM | 36.2 µM | 0.243 µM | 1.54 µM | 0.405 µM | 9.16 µM | 0.0705 µM | 0.502 µM | 0.464 µM | 6.02 µM
Nc1nn(C(=O)Nc2c(F)cccc2F)c2ccccc12 | 12.9 µM | > 100 µM | 18.6 µM | > 100 µM | 98.7 µM | > 100 µM | 83.9 µM | > 100 µM | 48.5 µM | > 100 µM | > 100 µM | > 100 µM | > 100 µM | > 100 µM | > 100 µM | > 100 µM | 34.8 µM | > 100 µM | 36.2 µM | > 100 µM
O=C(O)Cc1ccc(N=Nc2c(O)c(C(=O)O)cc3ccccc23)cc1 |  | > 100 µM |  | > 100 µM |  | > 100 µM |  | > 100 µM |  | > 100 µM |  | > 100 µM |  | > 100 µM |  | > 100 µM |  | > 100 µM |  | > 100 µM
